Key:
[1] = test system: patients with biopsy-confirmed NAFLD and type 2 diabetes; test: Example 3 clinical trial: liver histology (biopsy) at 48 weeks; assay type: in vivo, human; conditions: for histologic improvement from baseline to 48 weeks (in words): once-daily treatment
Excerpt: (§1) 1. The biopsy consistent with the diagnosis of NAFLD 2. Type 2 diabetes, HbA1c>=7.0% • Hepatic virus infections, autoimmune hepatitis, primary biliary cirrhosis, sclerosing cholangitis, haemochromatosis, antitrypsin deficiency, Wilsons disease, history of parenteral nutrition and use of drugs known to induce steatosis or hepatic injury caused by substance abuse and or the current or past consumption of more than 20 g of alcohol daily • Hypersensitivity to or contraindication of glimepiride and tofogliflozin • None type 2 diabetes • Poorly controlled diabetes • Repeated episodes of unexplained hypoglycemia • Concomitant infection or planned surgery • Poorly controlled hypertension • Severe retinopathy • Malignancy on an active therapeutic regimen or malignancy without complete remission or cure • Severe health problems not suitable for the study • Pregnant or lactating women • Inability to participate in the study as assessed by the investigators. A total of 40 patients were randomly assigned to receive once-daily tofogliflozin at a dose of 20 mg (20 patients) or to receive once-daily glimepiride (20 patients). All 40 patients (100%) completed the trial. Demographic and baseline clinical characteristics except for gender were similar in both groups. The patients were all Japanese and type 2 diabetes. The mean age was 53.9 years, the mean body weight 82.0 kg, the mean Hemoglobin A1c 8.2%, and the mean NAS 4.45. A total of 18 patients (45%) had stage F1 fibrosis, 11 (27.5%) had stage F2, and 5 (12.5%) had stage F3. A total of 40 patients were randomly assigned to receive once-daily tofogliflozin at a dose of 20 mg (20 patients) or to receive once-daily glimepiride (20 patients). All 40 patients (100%) completed the trial. Information for the primary and confirmatory secondary outcomes related to a biopsy at week 48 was available for 39 patients (97.5%). For only one patient with a serious adverse event (2.5%).

[2] = test system: patients with biopsy-confirmed NAFLD and type 2 diabetes; test: Example 3 clinical trial: metabolic parameters; assay type: in vivo, human
Excerpt: as §1

[3] = test system: patients with biopsy-confirmed NAFLD and type 2 diabetes; test: Example 3 clinical trial: serum enzyme levels and liver test; assay type: in vivo, human
Excerpt: as §1

adults with NAFLD [4] = test: Example 1 clinical study: liver fat content by MRI-PDFF; assay type: in vivo, human; conditions: for Liver fat content by MRI-PDFF, Responder / Liver fat content by MRI-PDFF, percent change from baseline: pemafibrate 0.4 mg/day BID; for Liver fat content by MRI-PDFF, mean difference: pemafibrate vs placebo
Protocol: (§2) This was a placebo-controlled, randomized, double-blind, parallel-group, study in adults with NAFLD. Subjects were administered pemafibrate tablets (0.4 mg/day, BID) or placebo tablets for 72 weeks following a screening period of from 2 to 8 weeks. The primary endpoint was percent change from baseline in liver fat content, measured by MRI-PDFF at week 24. The key secondary endpoints were percent changes in liver stiffness and ALT levels from baseline to week 72 and 24, respectively. The study was conducted in compliance with relevant guidelines, GCP guidance, and the Declaration of Helsinki.
(§3) Patients with a hepatic fat fraction ≥10% on MRI-PDFF, liver stiffness (measured using magnetic resonance elastography, MRE)≥2.5 kPa and elevated ALT (>40 U/L for men, >30 U/L for women) were enrolled. Patients were excluded in case of body mass index (BMI)<22 kg/m^2, uncontrolled diabetes (HbA1c≥8%), impaired renal function (estimated glomerular filtration rate, eGFR, <30 mL·min^−1·1.73^−1·m^−2 or on dialysis), cirrhosis, biliary obstruction, or chronic liver diseases other than NAFLD.
(§4) Subjects took their assigned medication (pemafibrate 0.2 mg tablet or placebo) orally, one tablet, twice daily, for 72 weeks. Study visits were set every 4 weeks from the start of treatment to week 24 and every 8 weeks from week 24 onwards. Liver fat content and liver stiffness were measured at screening examinations that took place pre-randomization and subsequently at weeks 0, 24, 48, and 72.
(§5) All imaging assessment procedures were performed blinded. The equipment used in all facilities was standardized to a 3.0 T MR Imaging System (GE Healthcare, Little Chalfont, UK). As an application, IDEAL-IQ for MRI-PDFF and MR-touch for MRE were used. Detailed imaging conditions are described in the “Imaging Procedure Manual” and imaging procedures were standardized throughout all tests. Imaging was performed during fasting (≥4 h postprandial) and the timing of testing (pre-breakfast/post-breakfast to pre-lunch/post-lunch) was unified for each patient throughout the study.
(§6) The primary efficacy endpoint was percent change in hepatic fat content, as measured using MRI-PDFF. Liver stiffness measured using MRE was a secondary endpoint and similarly assessed percent change from baseline values. Other efficacy endpoints included liver function, fibrosis and inflammatory markers, and lipid markers.

[5] = test system: LDL receptor knockout mice and KK-A mice fed with an MCD (methionine-choline-deficient) diet; conditions: cited from earlier work
adults with NAFLD [6] = test: Example 1 clinical study: liver stiffness by MRE; assay type: in vivo, human; conditions: for Liver stiffness by MRE, Responder / Liver stiffness by MRE, percent change from baseline: pemafibrate 0.4 mg/day BID; for Liver stiffness by MRE, mean difference: pemafibrate vs placebo
Protocol: as §2, §3, §4, §5, §6

adults with NAFLD [7] = test: Example 1 clinical study: lipids; assay type: in vivo, human; conditions: for HDL cholesterol, percent change from baseline / LDL cholesterol, percent change from baseline / Non-HDL cholesterol, percent change from baseline / Total cholesterol, percent change from baseline / Triglycerides, percent change from baseline: pemafibrate 0.4 mg/day BID; for HDL cholesterol, mean difference / LDL cholesterol, mean difference / Non-HDL cholesterol, mean difference / Total cholesterol, mean difference / Triglycerides, mean difference: pemafibrate vs placebo
Protocol: as §2, §3, §4, §6

[8] = reported by Ishibashi 2016; cited from earlier work
adults with NAFLD [9] = test: Example 1 clinical study: liver function (ALT, AST); assay type: in vivo, human; conditions: for ALT, percent change from baseline / AST, percent change from baseline: pemafibrate 0.4 mg/day BID; for ALT, mean difference / AST, mean difference: pemafibrate vs placebo
Protocol: as §2, §3, §4, §6

[10] = baseline to 48 weeks, tofogliflozin 20 mg once daily
[11] = week 48, P<0.001 for the comparison with glimepiride

## CCc1ccc(Cc2ccc3c(c2)[C@]2(OC3)OC(CO)[C@@H](O)C(O)C2O)cc1 (stereo in doubt) [tofogliflozin, 6-((4-ethylphenyl)methyl)-3′,4′,5′,6′-tetrahydro-6′-(hydroxymethyl)spiro(isobenzofuran-1(3H),2′-(2H)pyran)-3′,4′,5′-triol]
[1]; 48 weeks
  NAS compared with baseline values (in words): improved significantly
  fibrosis score (in words): significantly reduced
  lobular inflammation score (in words): significantly reduced
  mean ballooning scores (in words): significantly reduced
  mean steatosis scores (in words): significantly reduced
  percentage of steatosis (in words): significantly reduced
  histologic improvement from baseline to 48 weeks (in words): significant histologic improvements from baseline to 48 weeks in all variables
[1]; [10]
  ratio of the patients with improvement in ballooning necrosis: 55%
  ratio of the patients with improvement in lobular inflammation: 50%
  ratio of the patients with improvement in steatosis: 65%
[1]; before and after treatment, 48 weeks, P=0.001
  fibrosis scores improved: 60%
[2]; tofogliflozin 20 mg once daily
  BMI (in words): significant reduction
  percentage of body fat (in words): significant reduction
[2]; [11]
  mean body weight decrease: 4.8 kg
[3]; tofogliflozin 20 mg once daily
  FIB-4 index (in words): significantly reduced
  alanine aminotransferase levels (in words): early and highly significant decrease
  aspartate aminotransferase levels (in words): early and highly significant decrease
[3]; [11]
  gamma-glutamyl transferase, mean decrease: 23.8 IU/L

## CCC1=C(C)CN(C(=O)NCCc2ccc(S(=O)(=O)NC(=O)N[C@H]3CC[C@H](C)CC3)cc2)C1=O [glimepiride]
[1]; 48 weeks
  NAS compared with baseline values (in words): improved significantly
  mean ballooning scores (in words): significantly reduced
  histologic improvement from baseline to 48 weeks (in words): the only histologic improvement from baseline to 48 weeks was a reduction in ballooning necrosis

## (R)-2-[3-[[N-(benzoxazol-2-yl)-N-3-(4-methoxyphenoxy)propyl]aminomethyl]phenoxy]butyric acid [Pemafibrate]
Adults with NAFLD [4]; Week 24
  Liver fat content by MRI-PDFF, Responder: 20.7 (12) %
  Liver fat content by MRI-PDFF, percent change from baseline: −5.28%
  Liver fat content by MRI-PDFF, mean difference: −1.04%
Adults with NAFLD [4]; Week 48
  Liver fat content by MRI-PDFF, Responder: 10.3 (6) %
  Liver fat content by MRI-PDFF, percent change from baseline: 0.50%
  Liver fat content by MRI-PDFF, mean difference: 1.03%
Adults with NAFLD [4]; Week 72
  Liver fat content by MRI-PDFF, Responder: 22.4 (13) %
  Liver fat content by MRI-PDFF, percent change from baseline: −4.88%
  Liver fat content by MRI-PDFF, mean difference: −5.10%
[5]
  ballooning of hepatocytes, fat deposition, number of Kupffer cells (in words): suppresses ballooning of hepatocytes and fat deposition and reduces the number of Kupffer cells
Adults with NAFLD [6]; Example 1 study, summary
  liver stiffness when measured by MRE (in words): significant improvements
Adults with NAFLD [6]; Week 24
  Liver stiffness by MRE, Responder: 19.0 (11) %
  Liver stiffness by MRE, percent change from baseline: −5.03%
  Liver stiffness by MRE, mean difference: −4.38%
Adults with NAFLD [6]; Week 48
  Liver stiffness by MRE, Responder: 37.9 (22) %
  Liver stiffness by MRE, percent change from baseline: −9.01%
  Liver stiffness by MRE, mean difference: −5.68%
Adults with NAFLD [6]; Week 72
  Liver stiffness by MRE, Responder: 25.9 (15) %
  Liver stiffness by MRE, percent change from baseline: −7.27%
  Liver stiffness by MRE, mean difference: −6.15%
Adults with NAFLD [7]; Example 1 study, summary
  HDL cholesterol (in words): significant reductions
  LDL cholesterol (in words): significant reductions
  total cholesterol (in words): significant reductions
Adults with NAFLD [7]; Week 24
  HDL cholesterol, percent change from baseline: −1.68%
  LDL cholesterol, percent change from baseline: −14.72%
  Non-HDL cholesterol, percent change from baseline: −13.82%
  Total cholesterol, percent change from baseline: −11.19%
  Triglycerides, percent change from baseline: −34.60%
  HDL cholesterol, mean difference: −7.57%
  LDL cholesterol, mean difference: −13.66%
  Non-HDL cholesterol, mean difference: −12.82%
  Total cholesterol, mean difference: −11.55%
  Triglycerides, mean difference: −31.11%
Adults with NAFLD [7]; Week 48
  HDL cholesterol, percent change from baseline: −6.40%
  LDL cholesterol, percent change from baseline: −14.22%
  Non-HDL cholesterol, percent change from baseline: −12.95%
  Total cholesterol, percent change from baseline: −11.55%
  Triglycerides, percent change from baseline: −27.11%
  HDL cholesterol, mean difference: −10.24%
  LDL cholesterol, mean difference: −16.37%
  Non-HDL cholesterol, mean difference: −14.24%
  Total cholesterol, mean difference: −13.19%
  Triglycerides, mean difference: −25.77%
Adults with NAFLD [7]; Week 72
  HDL cholesterol, percent change from baseline: −7.38%
  LDL cholesterol, percent change from baseline: −12.48%
  Non-HDL cholesterol, percent change from baseline: −11.92%
  Total cholesterol, percent change from baseline: −11.12%
  Triglycerides, percent change from baseline: −31.55%
  HDL cholesterol, mean difference: −11.86%
  LDL cholesterol, mean difference: −15.14%
  Non-HDL cholesterol, mean difference: −15.77%
  Total cholesterol, mean difference: −14.86%
  Triglycerides, mean difference: −32.67%
[8]
  ALT concentrations (in words): much more modest decrease
  LDL cholesterol (in words): increase
  total cholesterol (in words): modest decrease
Adults with NAFLD [9]; Example 1 study, summary
  liver function as measured by ALT (in words): significant improvements
Adults with NAFLD [9]; Week 24
  ALT, percent change from baseline: −39.53%
  AST, percent change from baseline: −9.21%
  ALT, mean difference: −27.08%
  AST, mean difference: −2.69%
Adults with NAFLD [9]; Week 48
  ALT, percent change from baseline: −42.53%
  AST, percent change from baseline: −9.75%
  ALT, mean difference: −26.75%
  AST, mean difference: −0.18%
Adults with NAFLD [9]; Week 72
  ALT, percent change from baseline: −43.84%
  AST, percent change from baseline: −9.61%
  ALT, mean difference: −33.60%
  AST, mean difference: −4.48%
